These are literature values, as cited in US20100197704A1, “PHARMACEUTICAL COMPOSITIONS AND METHOD FOR TREATING ACUTE MANIA” (priority 2007, published 2010).

SMILES strings stand for the structures.

Holding throughout (conditions): cited from earlier work
The target of one data set is T1, 5-HT2C (Homo sapiens, UniProt P28335).
T1 sequence (P28335 33-458): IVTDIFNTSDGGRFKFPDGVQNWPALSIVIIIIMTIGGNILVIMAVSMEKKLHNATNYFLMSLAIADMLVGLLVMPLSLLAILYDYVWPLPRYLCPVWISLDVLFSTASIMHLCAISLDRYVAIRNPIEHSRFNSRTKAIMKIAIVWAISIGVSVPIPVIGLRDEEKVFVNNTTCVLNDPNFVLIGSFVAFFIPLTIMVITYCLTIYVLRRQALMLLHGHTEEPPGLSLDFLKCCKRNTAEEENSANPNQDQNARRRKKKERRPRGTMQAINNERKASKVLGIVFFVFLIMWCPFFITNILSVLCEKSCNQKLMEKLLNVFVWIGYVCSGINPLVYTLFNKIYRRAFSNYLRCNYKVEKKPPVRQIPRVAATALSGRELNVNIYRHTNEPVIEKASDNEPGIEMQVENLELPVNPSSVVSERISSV

Another data set addresses presynaptic D2 receptors (Homo sapiens, UniProt P14416).
Data set [1] deals with T2, serotonin 5-HT1A receptors (Homo sapiens, UniProt P08908).
T2 sequence (P08908 1-422): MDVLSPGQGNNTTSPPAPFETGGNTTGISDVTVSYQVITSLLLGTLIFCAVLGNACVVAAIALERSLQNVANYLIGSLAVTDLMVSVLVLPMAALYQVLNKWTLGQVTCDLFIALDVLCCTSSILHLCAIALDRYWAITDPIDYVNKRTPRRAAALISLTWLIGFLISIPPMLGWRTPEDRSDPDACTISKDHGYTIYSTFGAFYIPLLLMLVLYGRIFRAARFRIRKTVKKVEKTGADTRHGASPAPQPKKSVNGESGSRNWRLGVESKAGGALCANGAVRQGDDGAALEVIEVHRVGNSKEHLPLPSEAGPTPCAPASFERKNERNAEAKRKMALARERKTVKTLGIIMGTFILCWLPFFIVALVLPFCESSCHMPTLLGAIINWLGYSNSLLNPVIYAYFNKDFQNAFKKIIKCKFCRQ

Data set [2] deals with T2, serotonin 5-HT1A receptors. The source holds these as a separate data set.
The target in the next data set is histamine H1 (Homo sapiens, UniProt P35367).
Data set [3] concerns adrenergic receptor sites.

presynaptic D2 receptors, sequence (P14416 whole entry): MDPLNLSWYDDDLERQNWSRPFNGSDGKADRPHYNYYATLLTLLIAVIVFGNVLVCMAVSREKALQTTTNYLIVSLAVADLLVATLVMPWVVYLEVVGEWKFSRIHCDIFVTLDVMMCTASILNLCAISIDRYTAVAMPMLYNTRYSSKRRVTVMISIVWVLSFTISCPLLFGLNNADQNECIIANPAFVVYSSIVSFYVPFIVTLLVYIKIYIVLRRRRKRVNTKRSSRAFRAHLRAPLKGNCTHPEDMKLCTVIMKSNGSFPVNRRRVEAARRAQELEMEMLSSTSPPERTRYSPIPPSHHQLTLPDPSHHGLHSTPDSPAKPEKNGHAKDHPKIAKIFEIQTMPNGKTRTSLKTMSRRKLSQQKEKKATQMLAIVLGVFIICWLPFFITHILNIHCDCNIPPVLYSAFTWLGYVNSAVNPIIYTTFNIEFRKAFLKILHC
histamine H1, sequence (P35367 whole entry): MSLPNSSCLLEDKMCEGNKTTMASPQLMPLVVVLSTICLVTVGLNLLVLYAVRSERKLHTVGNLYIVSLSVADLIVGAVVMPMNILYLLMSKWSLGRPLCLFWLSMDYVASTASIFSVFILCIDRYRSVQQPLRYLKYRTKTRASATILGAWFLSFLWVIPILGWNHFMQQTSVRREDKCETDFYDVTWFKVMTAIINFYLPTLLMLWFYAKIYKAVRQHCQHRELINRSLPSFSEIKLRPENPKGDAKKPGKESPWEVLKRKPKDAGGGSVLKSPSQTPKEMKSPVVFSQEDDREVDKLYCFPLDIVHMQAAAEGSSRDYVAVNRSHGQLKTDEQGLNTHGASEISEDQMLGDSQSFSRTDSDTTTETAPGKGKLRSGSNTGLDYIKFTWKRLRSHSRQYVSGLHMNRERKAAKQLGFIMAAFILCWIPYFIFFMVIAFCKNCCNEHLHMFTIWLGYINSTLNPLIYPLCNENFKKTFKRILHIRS

In the case of `CN(C)C(=O)NC1CCC(CCN2CCN(c3cccc(Cl)c3Cl)CC2)CC1.Cl` (stereo not drawn) [trans-4-{2-[4-(2,3-dichlorophenyl)-piperazin-1-yl]-ethyl}-N,N-dimethylcarbamoyl-cyclohexylamine hydrochloride], on 5-HT2C, the “potency at 5-HT2C receptor site” value is listed as “low potency”. Moreover, the “activity on biosynthesis (and release) modulating presynaptic D2 receptors” value at presynaptic D2 receptors (depending on the functional status of the particular dopaminergic system) was “both (partial) agonist and antagonist activity”. In addition, the “in vivo mode of action on the dopamine system” value at presynaptic D2 receptors (in vivo, preferential dopaminergic actions in the limbic regions) is recorded as “dopamine system stabilizer”. Moreover, the “affinity for serotonin 5-HT1A receptors” value in data set [1] is recorded as “considerable affinity”. Further, the “functional activity at serotonin 5-HT1A receptors” value in data set [2] is on record as “partial agonist”. Besides, the “potency at histamine H1 receptor site” value at histamine H1 is “low potency”. Besides, the “potency at adrenergic receptor sites” value in data set [3] is recorded as “low potency”.
